{
  "source": "ChEMBL document CHEMBL3886745",
  "about": "“Pyrrolidine compounds” (2016)",
  "target": "T1, Neuromedin-K receptor (Homo sapiens, UniProt P29371)",
  "T1 sequence (P29371 whole entry)": "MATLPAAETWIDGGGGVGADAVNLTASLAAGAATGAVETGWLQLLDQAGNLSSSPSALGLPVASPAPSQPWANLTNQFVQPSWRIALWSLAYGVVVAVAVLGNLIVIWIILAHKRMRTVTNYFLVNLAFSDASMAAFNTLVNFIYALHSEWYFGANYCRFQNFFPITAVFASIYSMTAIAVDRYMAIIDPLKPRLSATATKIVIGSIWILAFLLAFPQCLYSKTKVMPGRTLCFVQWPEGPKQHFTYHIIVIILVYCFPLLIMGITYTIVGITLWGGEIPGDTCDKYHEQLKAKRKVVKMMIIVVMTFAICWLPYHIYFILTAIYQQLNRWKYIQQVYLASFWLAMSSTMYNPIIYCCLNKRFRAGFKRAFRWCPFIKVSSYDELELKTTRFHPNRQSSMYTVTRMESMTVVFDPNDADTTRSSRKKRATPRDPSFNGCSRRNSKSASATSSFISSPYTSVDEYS",
  "test": "[3H]SR142801 Competition Binding Assay: hNK3 receptor binding experiment were performed using [3H]SR142801 (Catalog No. TRK1035, specific activity: 74.0 Ci/mmol, Amersham, GE Healthcare UK limited, Buckinghamshire, UK) and membrane isolated from HEK293 cells transiently expressing recombinant human NK3 receptor. After thawing, the membrane homogenates were centrifuged at 48,000×g for […] at 4° C., the pellets were resuspended in the 50 mM Tris-HCl, 4 mM MnCl2, 1 μM phosphoramidon, 0.1% BSA binding buffer at pH 7.4 to a final assay concentration of 5 μg protein/well. For inhibition experiments, membranes were incubated with [3H]SR142801 at a concentration equal to KD value of radioligand and 10 concentrations of the inhibitory compound (0.0003-10 μM) (in a total reaction volume of 500 μl) for 75 min at room temperature (RT). At the end of the incubation, membranes were filtered onto unitfilter (96-well white microplate with bonded GF/C filter preincubated 1 h in 0.3% PEI+0.3% BSA, Packard BioScience, Meriden, Conn.) with a Filtermate 196 harvester (Packard BioScience) and washed 4 times with ice-cold 50 mM Tris-HCl, pH 7.4 buffer. Nonspecific binding was measured in the presence of 10 μM SB222200 for both radioligands. […]",
  "assay_type": "cell membranes",
  "data": [
    {"smiles": "CCN(C(=O)Oc1ccc(F)cc1)[C@@H]1CN(C(=O)C2CCN(c3ccc(OC(C)=O)cn3)CC2)C[C@H]1c1ccc(Cl)cc1", "values": [
      {"measurement": "Ki", "value": 6, "unit": "nM"}
    ]},
    {"smiles": "CCN(C(=O)Oc1ccc(F)cc1)[C@@H]1CN(C(=O)C2CCN(c3ccc(C(F)(F)F)cn3)CC2)C[C@H]1c1ccc(F)c(F)c1", "values": [
      {"measurement": "Ki", "value": 9, "unit": "nM"}
    ]}
  ]
}
